PMC4462073 (BMC Evolutionary Biology, 2015)

Target: T1, PriA_Blon (Bifidobacterium longum, UniProt Q8G4S5)
T1 sequence (Q8G4S5 1-241): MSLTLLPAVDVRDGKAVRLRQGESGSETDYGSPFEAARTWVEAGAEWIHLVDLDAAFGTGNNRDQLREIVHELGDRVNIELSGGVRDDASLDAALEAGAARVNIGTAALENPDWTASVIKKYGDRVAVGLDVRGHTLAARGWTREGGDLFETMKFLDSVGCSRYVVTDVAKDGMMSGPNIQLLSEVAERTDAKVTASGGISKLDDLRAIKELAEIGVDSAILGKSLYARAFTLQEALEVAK
Experiment: steady-state kinetics, PRA isomerase
Assay type: biochemical
Conditions: read-out: In vitro activity^a / PRA isomerase (TrpF) / K M μM

Work on `O=C(O)c1ccccc1N[C@@H]1O[C@H](COP(=O)(O)O)[C@@H](O)[C@H]1O` [PRA, N’-(5′-phosphoribosyl) anthranilate] yielded a Km of 6.1 ± 0.1 µM.
